Assays:
[1] = Comparative in vitro stability of 99m-Tc CB-PAO and 99m-Tc HM-PAO prepared in the same vial (HPLC); type: physicochemical; conditions: for Stabilization: CB relative to HM; for CB/HM: ratio of CB to HM percentage; for in vitro stability, in words: 13.4 hours; for percentage of 99m-Tc complex (CB or HM): same vial, HPLC
Procedure: In order to test the in vitro stability of the 99m-Tc-CB-PAO, 99m-Tc-CB-PAOand 99m-Tc-HMPAO were prepared in the same vial. The CB-PAO and HM-PAO agents were both reacted with pertechnetate in the same vial. This insures that both compositions were subjected to the same characteristics. These were then tested using HPLC. The results showing the percentage of 99m-Tc CB-PAO (labeled CB) and 99m-Tc HM-PAO labeled HM are shown in Table 1 over a period of 0 minutes to 13.4 hours.

[2] = Brain uptake, retention and tomographic brain imaging in normal human volunteers; type: in vivo
Procedure: (§1) In order to test the whole body biodistribution of the 99m-Tc CB-PAO tracer, three normal human volunteers were tested using single photon emission computed tomography. Whole body images were obtained at 15 minutes, two hours and five hours after an intraveneous injection of about 13 millicurries of Tc-99m d,l-CB-PAO. A dynamic study during the first ten minutes after administration of the tracer defined the time activity curve for brain uptake. The tomographic study was performed at one hour after administration. Venous blood samples were collected at various times up to five hours after administration and urine was collected up to 24 hours after administration.
The decrease in cerebral activity is only about 5% between 15 minutes and 2 hours after injection. Approximately 24% of the injected dose is cleared through the renal system within five hours and approximately 37% is cleared within 24 hours.

[3] = Renal clearance (urine collection) in normal human volunteers; type: in vivo
Procedure: as §1

[4] = In vitro stability of 99m-Tc-CB-PAO after pH lowering with gentisic acid; type: physicochemical; conditions: about 6mM gentisic acid solution added
Procedure: The d,l isomer is then complexed with 99m-technetium to obtain a brain perfusion imaging agent. To formulate the 99m-Tc-d,l-CB-PAO 5ml of a ligand solution is placed into an evacuated 10 ml vial. The ligand solution contained approximately 0.5 mg/ml of ligand. One hundred and fifty microliters of a tin chloride solution containing 10 mg of tin chloride per 50 ml in water was added. Ten to one hundred microliters of 99m-pertechnetate sodium solution eluted from a molybdenum 99 generator is added to the vial and this is shaken for 10 seconds. An imaging solution can be immediately removed for use.
However, it is preferable that the pH of the solution which upon addition of the stanous chloride is about 8.9 be lowered. Accordingly, gentisic acid was used to lower the pH of the complex. A solution of gentisic acid was made by dissolving 0.0303g of gentisic acid and 30ml saline. 3.0 milliliters of this solution was pipetted into another vial.
An additional 30ml of saline was added. This latter vial was purged with argon for 50 minutes and sealed to yield a solution of about […] in gentisic acid. 1.0-1.2ml of the above solution was added to a 10 ml evacuated vial. 2.5 milliliters of 99m-Tc-CB-PAO previously prepared is then added to this evacuated vial. This was then tested for stability. At 15 minutes, 100% of the 99m-Tc-CB-PAO remained. At 165 minutes again 100% of the 99m-Tc-CB-PAO remained. At 18 hours 98% of the 99m-Tc-CB-PAO remained.

[5] = Whole body biodistribution by single photon emission computed tomography in normal human volunteers; type: in vivo; conditions: intravenous, about 13 millicurries, in %
Procedure: as §1

[6] = background statement; cited from earlier work
[7] = cited from earlier work

CC1=[N+]([O-])[99Tc-2]23(=[O])[N](CC4(CCC4)C[N]2C(C)C(C)=[N+]3O)C1C (racemic) [99m-Tc CB-PAO]
Stabilization ([1]; 23 min): 30% | CB/HM ([1]; 23 min): 1.85 | Stabilization ([1]; 74 min): 50% | CB/HM ([1]; 74 min): 2.04 | Stabilization ([1]; 3.3 h): 53% | CB/HM ([1]; 3.3 h): 2.11 | Stabilization ([1]; 12.2 h): 140% | CB/HM ([1]; 12.2 h): 3.29 | Stabilization ([1]; 13.4 h): 160% | CB/HM ([1]; 13.4 h): 3.58 | in vitro stability, in words [1]: most of the 99m-Tc CB-PAO remained | Stabilization ([1]; time 0): 0% | CB/HM ([1]; time 0): 1.40 | percentage of 99m-Tc complex (CB or HM) ([1]; time 0): 55.2% | in vitro stability compared with the prior art brain imaging agent, in words ([1]; vs 99m-Tc HM-PAO): substantially more stable in vitro than the prior art brain imaging agent | decrease in cerebral activity ([2]; between 15 minutes and 2 hours after injection): about 5% | tomographic brain image quality, in words ([2]; tomographic study at one hour after administration): good definition of cerebral structures and good distinction between grey and white matter | stability of brain uptake, in words ([2]; up to five hours after injection): stable for up to five hours | injected dose taken up by the brain ([2]; within the first five minutes after intravenous injection): Approximately 3.6 % of the injected dose | injected dose cleared through the renal system ([3]; within 24 hours): approximately 37 % of the injected dose | injected dose cleared through the renal system ([3]; within five hours, 300 min): Approximately 24 % of the injected dose | 99m-Tc-CB-PAO remaining ([4]; 15 minutes): 100% | 99m-Tc-CB-PAO remaining ([4]; 165 minutes): 100% | 99m-Tc-CB-PAO remaining ([4]; 18 hours): 98% | Whole body distribution, Bladder & Urine ([5]; 15'): 4.2 ± 1.36 | Whole body distribution, Blood ([5]; 15'): 14.9 ± 0.79 | Whole body distribution, Brain ([5]; 15'): 3.6 ± 0.26 | Whole body distribution, Gallbladder ([5]; 15'): 2.2 ± 0.05 | Whole body distribution, Liver ([5]; 15'): 26.4 ± 7.1 | Whole body distribution, Lungs ([5]; 15'): 4.0 ± 0.85 | Whole body distribution, Bladder & Urine ([5]; 2h): 19.4 ± 8.4 | Whole body distribution, Blood ([5]; 2h): 8.3 ± 0.7 | Whole body distribution, Brain ([5]; 2h): 3.5 ± 0.15 | Whole body distribution, Gallbladder ([5]; 2h): 2.8 ± 0.7 | Whole body distribution, Liver ([5]; 2h): 25.4 ± 7. | Whole body distribution, Lungs ([5]; 2h): 3.1 ± 0.70 | Whole body distribution, Bladder & Urine ([5]; 5h): 23.5 ± 2.80 | Whole body distribution, Blood ([5]; 5h): 5.8 ± 0.45 | Whole body distribution, Brain ([5]; 5h): 3.5 ± 0.11 | Whole body distribution, Gallbladder ([5]; 5h): 1.7 ± 0.65 | Whole body distribution, Liver ([5]; 5h): 22.3 ± 9.5 | Whole body distribution, Lungs ([5]; 5h): 2.7 ± 0.72

C/C(=N\O)[C@@H](C)NCC(C)(C)CN[C@H](C)/C(C)=N/O [99m-Tc HM-PAO, 4,8,-diaza-3,6,6,9-tetramethyl undecane-2,10-dione bisoxime, metal not drawn]
in vitro stability, in words [1]: most of the 99m-Tc HM-PAO had decomposed | percentage of 99m-Tc complex (CB or HM) ([1]; time 0): 39.5% | brain passage and retention, in words [6]: passes through the blood brain barrier, is theoretically altered in some way, and remains in the brain for a period of time sufficient to obtain a successful brain image | aqueous in vitro degradation rate, in words ([7]; J. Nucl. Med. 1988): slow | time after formulation within which it must be administered ([7]; aqueous, without stabilizer, J. Nucl. Med. 1988): ≤ 30 min | time after preparation within which it must be used, in words ([7]; stabilized with gentisic acid within 30 seconds after formation): must be used within hours after preparation

Reference: US5026829A, “Cyclo substituted propyleneamine oxime and its use as a brain imaging agent” (University of Cincinnati, priority 1989, dated 1991)
